The NIST ThermoML archive (doi:10.1021/je0501639)

Legend:
[1] = xn = mol fraction of the nth substance listed; conditions: 100.8 kPa, Liquid
[2] = refractive index (Na D-line) (dimensionless); xn = mol fraction of the nth substance listed; conditions: 100.8 kPa, Liquid, Standard Abbe refractometry

CC(C)(C)O [2-methylpropan-2-ol] + CC(C)CC(C)(C)C
Conditions	mass density, 298.15 K [kg/m3]	mass density, 308.15 K [kg/m3]	mass density, 318.15 K [kg/m3]	refractive index, 298.15 K	refractive index, 308.15 K	refractive index, 318.15 K	viscosity, 298.15 K [mPa·s]	viscosity, 308.15 K [mPa·s]	viscosity, 318.15 K [mPa·s]
[1], x1 = 0.05	689.77	681.15	672.12	–	–	–	0.483	0.425	0.377
[1], x1 = 0.1	691.89	683.25	674.11	–	–	–	0.509	0.449	0.4
[1], x1 = 0.15	694.45	685.62	676.56	–	–	–	0.515	0.447	0.394
[1], x1 = 0.2	697.14	688.28	679.2	–	–	–	0.553	0.478	0.413
[1], x1 = 0.25	700.02	691.11	681.96	–	–	–	0.564	0.48	0.42
[1], x1 = 0.3	703.12	694.14	684.92	–	–	–	0.598	0.522	0.449
[1], x1 = 0.35	706.4	697.38	688.11	–	–	–	0.614	0.523	0.45
[1], x1 = 0.4	709.87	700.8	691.43	–	–	–	0.665	0.564	0.48
[1], x1 = 0.45	713.52	704.42	694.99	–	–	–	0.698	0.59	0.504
[1], x1 = 0.5	717.43	708.24	698.77	–	–	–	0.765	0.633	0.542
[1], x1 = 0.55	721.62	712.37	702.81	–	–	–	0.805	0.672	0.564
[1], x1 = 0.6	726.19	716.85	707.21	–	–	–	0.912	0.726	0.614
[1], x1 = 0.65	731.11	721.69	711.98	–	–	–	0.984	0.786	0.649
[1], x1 = 0.7	736.55	727.03	717.21	–	–	–	1.107	0.866	0.706
[1], x1 = 0.75	742.44	732.81	722.88	–	–	–	1.297	0.994	0.798
[1], x1 = 0.8	748.88	739.1	729.03	–	–	–	1.557	1.14	0.889
[1], x1 = 0.85	755.87	745.89	735.65	–	–	–	1.895	1.332	1.028
[1], x1 = 0.9	763.54	753.43	743.04	–	–	–	2.426	1.622	1.164
[1], x1 = 0.95	771.9	761.62	751.07	–	–	–	3.172	2.02	1.398
[1], x1 = 1	780.99	770.7	760.05	–	–	–	4.43	2.622	1.708
[2], x1 = 0.05	–	–	–	1.38834	1.38325	1.37818	–	–	–
[2], x1 = 0.1	–	–	–	1.38784	1.38271	1.37755	–	–	–
[2], x1 = 0.15	–	–	–	1.38735	1.38219	1.37703	–	–	–
[2], x1 = 0.2	–	–	–	1.38693	1.38177	1.37655	–	–	–
[2], x1 = 0.25	–	–	–	1.3865	1.38135	1.37611	–	–	–
[2], x1 = 0.3	–	–	–	1.38612	1.38095	1.3757	–	–	–
[2], x1 = 0.35	–	–	–	1.38573	1.38055	1.37528	–	–	–
[2], x1 = 0.4	–	–	–	1.38537	1.38021	1.37491	–	–	–
[2], x1 = 0.45	–	–	–	1.38505	1.37986	1.37458	–	–	–
[2], x1 = 0.5	–	–	–	1.38473	1.37955	1.37427	–	–	–
[2], x1 = 0.55	–	–	–	1.38445	1.37926	1.37397	–	–	–
[2], x1 = 0.6	–	–	–	1.3842	1.37903	1.37371	–	–	–
[2], x1 = 0.65	–	–	–	1.38398	1.37881	1.37348	–	–	–
[2], x1 = 0.7	–	–	–	1.38381	1.37862	1.37331	–	–	–
[2], x1 = 0.75	–	–	–	1.38371	1.3785	1.37317	–	–	–
[2], x1 = 0.8	–	–	–	1.38368	1.37847	1.37313	–	–	–
[2], x1 = 0.85	–	–	–	1.38381	1.37858	1.37323	–	–	–
[2], x1 = 0.9	–	–	–	1.38405	1.37879	1.37339	–	–	–
[2], x1 = 0.95	–	–	–	1.38436	1.37914	1.37372	–	–	–
[2], x1 = 1	–	–	–	1.38481	1.3796	1.37416	–	–	–
